Reference: patent US11365203B2, “Fluorescent dye and preparation method and use thereof” (Fluorescence Diagnosis (shanghai) Biotech Company Ltd., priority 2016, dated 2022)

Experiment: Fluorescence emission spectra of molecular rotors in glycerin and methanol
Format: physicochemical
Conditions: for Maximum Emission Wavelength: 1×10^−5 M in glycerin and methanol, excited at maximum excitation wavelength of each dye; for Fluorescence Intensity Ratios in Glycerol/Methanol: 1×10^−5 M, glycerol vs methanol solution
Description: The fluorescent dyes (molecular rotors) prepared in Examples 1-68 were separately dissolved in dimethyl sulfoxide to prepare respectively a mother liquor having a concentration of 1×10^−2 M, and each of the mother liquors was added individually to glycerin and methanol, and mixed uniformly, thereby solutions of a final concentration of 1×10^−5 M were prepared individually. According to the different fluorescent dyes, the fluorescence emission spectra of the fluorescent dyes were detected with the maximum excitation wavelengths of respective fluorescent dyes successively under the same conditions.

| Compound | Maximum Emission Wavelength [nm] | Fluorescence Intensity Ratios in Glycerol/Methanol |
| --- | --- | --- |
| 6-[2-cyano-2-(2-phenylpropionazole)-vinyl]-2-dimethylamino-thieno[3,2-B:2′,3′-D]thiophene [Molecular Rotor 12] | 655 | 655 |
| CN(CCOCCCS(=O)(=O)O)c1cc2sc(C=C(C#N)C#N)cc2s1 [Molecular Rotor 4, 6-(2,2-dicyano-vinyl)-2-[N-methyl-N-(3-sulfonic acid propyloxyethyl)]-thieno[3,2,b]thiophene] | 557 | 892 |
| CNc1cc2sc(/C=C(\C#N)C(=O)O)cc2s1 [Molecular Rotor 5, 6-(2-cyano-2-formic acid)-2-methylamino-thieno[3,2,b]thiophene] | 555 | 1980 |
| COCCOCCOCCOCCOCCN(C)c1cc2sc(/C=C3\N=C(C)N(C)C3=O)cc2s1 [Molecular Rotor 6] | 585 | 1453 |
| COCCNC(=O)/C(C#N)=C/c1cc2sc(N(C)CCC#N)cc2s1 [Molecular Rotor 7] | 555 | 1877 |
| CC1(C)OC(=O)C(C#N)=C1c1cc2sc(O)cc2s1 [Molecular Rotor 10] | 520 | 851 |
| CN(C)c1cc2sc3cc(/C=C(\C#N)C(=O)OC(C)(C)C)sc3c2s1 [Molecular Rotor 11, 6-(2-cyano-2-tert-butyl formatevinyl)-2-dimethylamino-thieno[3,2-B:2′,3′-D]thiophene] | 620 | 568 |
| CN(CC(=O)O)c1cc2sc3cc(/C=C(\C#N)c4nc5ccccc5s4)sc3c2s1 [Molecular Rotor 13, 6-[2-cyano-2-(1,3-benzothiazol-2-yl)-vinyl]-2-N-m ethylamino-N-acetic acid-dithiophene[3,2-B:2′3′-D]thiophene] | 690 | 352 |
| CN1C(=O)/C(=C/c2cc3sc4cc(N(CCCl)CCCl)sc4c3s2)N=C1/C=C/c1ccccc1 [Molecular Rotor 20] | 690 | 536 |

The remaining lines, values ahead:

| Maximum Emission Wavelength [nm] | Fluorescence Intensity Ratios in Glycerol/Methanol | Compound |
| --- | --- | --- |
| 620 | 681 | CN(C)c1cc2sc3cc(C=C(C#N)C#N)sc3c2s1 [Molecular Rotor 14] |
| 620 | 799 | COCCNC(=O)/C(C#N)=C/c1cc2sc3cc(N4CCCC4)sc3c2s1 [Molecular Rotor 15] |
| 620 | 951 | CN(CC(O)C(O)C(O)C(O)CO)c1cc2sc3cc(/C=C(\C#N)C(=O)O)sc3c2s1 (stereo not drawn) [Molecular Rotor 16] |
| 618 | 888 | COC(=O)/C(C#N)=C/c1cc2sc3cc(N(CC(=O)O)CC(=O)O)sc3c2s1 [Molecular Rotor 17] |
| 630 | 678 | COCCOCCOCCOCCOCCOCCOCCOCCOCCOCCOCCOCCOCCOCCOCCNc1cc2sc3cc(/C=C4\N=C(C)N(C)C4=O)sc3c2s1 [Molecular Rotor 18] |
| 650 | 791 | CN1C(=O)/C(=C/c2cc3sc4cc(N(CCO)CCO)sc4c3s2)N=C1c1ccccc1 [Molecular Rotor 19] |
| 620 | 544 | CCOC(=O)/C(C#N)=C/c1cc2sc3cc(N4CCOCC4)sc3c2s1 [Molecular Rotor 21] |
| 608 | 568 | CN(CCO)c1ccc2cc(/C=C(\C#N)c3nc4ccccc4o3)sc2c1 [Molecular Rotor 23] |
| 608 | 912 | N#C/C(=C\c1cc2ccc(N(CCO)CCO)cc2s1)c1nc2ccccc2s1 [Molecular Rotor 24] |
